Source: patent publication US20130023555A1, “KINASE INHIBITOR WITH IMPROVED SOLUBILITY PROFILE” (Abbott Laboratories, priority 2011, published 2013)

Biological target: T1, CSF1R (Homo sapiens, UniProt P07333)
T1 construct: CSF-1R Q547- C972; M-His(6) (N)
T1 sequence (P07333 547-972): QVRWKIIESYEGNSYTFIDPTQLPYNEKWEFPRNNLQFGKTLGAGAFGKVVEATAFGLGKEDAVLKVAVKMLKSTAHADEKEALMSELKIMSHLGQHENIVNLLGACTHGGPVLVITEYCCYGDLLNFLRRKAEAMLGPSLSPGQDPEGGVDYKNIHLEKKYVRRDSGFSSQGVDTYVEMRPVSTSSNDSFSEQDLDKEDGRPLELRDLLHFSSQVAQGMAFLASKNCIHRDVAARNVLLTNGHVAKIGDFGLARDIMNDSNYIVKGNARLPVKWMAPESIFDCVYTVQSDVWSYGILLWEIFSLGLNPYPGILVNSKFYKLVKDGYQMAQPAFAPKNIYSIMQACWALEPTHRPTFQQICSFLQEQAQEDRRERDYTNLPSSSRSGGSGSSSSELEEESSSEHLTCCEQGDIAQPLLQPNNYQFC
Test: HTRF in vitro kinase assay, CSF1R
Assay type: biochemical
Settings: 1 mM ATP
Procedure: To determine the activity of the various kinases, a homogenous time-resolved fluorescence (HTRF) in vitro kinase assay was used. (Mathis, G., HTRF(R) Technology. J Biomol Screen, 1999. 4(6): p. 309-314; Alfred J. Kolb, Paul V. Kaplita, David J. Hayes, Young-Whan Park, Christine Pernell, John S. Major and Gerard Mathis, Drug Discovery Today, 1998, 3, 333-342.)
For example for KDR, cKIT, FLT1, CSF1R and FTL3, purified enzyme was mixed with 0.5 μM N-biotinylated substrate (Biotin-Ahx-[…]-amide (SEQ. ID. 1)), various concentrations of inhibitor in reaction buffer (50 mM HEPES, pH 7.1, 10 mM MgCl2, 2 mM MnCl2, 0.1% BSA and 1 mM DTT, 40 μL final volume), ATP (1 mM final conc.) in a black 384-well plate. […] The quenched reaction was allowed to stand at room temperature for 3 hours and was then read in a time-resolved fluorescence detector (InVision, Perkin-Elmer) at 620 nm and 665 nm sequentially with excitation. The ratio between the signal of 620 nm and 665 nm was used in the calculation of the IC50.

CNC(=O)c1cnc(N)c2c(-c3ccc(NC(=O)Nc4cccc(C)c4)cc3)csc12 [Example 2, 4-amino-N-methyl-3-(4-{[(3-methylphenyl)carbamoyl]amino}phenyl)thieno[3,2-c]pyridine-7-carboxamide]
IC50: 3 nM
